According to ChEMBL document CHEMBL1201862, “PubChem BioAssay data set” (2004):
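Exposure lasted 48 hours, with cells grown in 96-well plates and compounds tested at five concentrations. GI50 = concentration required for 50% inhibition of growth.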 Activity calls are given as the source filed them. Rule as the data show it: active = GI50 up to about 1.1 µM and inactive = higher.

How the values were obtained:
Assay in all cases: DTP human tumour cell line panel, 48 h
DLD-1 = tested on: DLD-1
XF498 = tested on: XF498
DMS-114 = tested on: DMS-114
SNB-78 = tested on: SNB-78
LXFL 529 = tested on: LXFL 529
KM-20L2 = tested on: KM-20L2
RXF 631 = tested on: RXF 631
M19-MEL = tested on: M19-MEL
HOP-18 = tested on: HOP-18

SMILES	GI50 (DLD-1)	GI50 (XF498)	GI50 (DMS-114)	GI50 (SNB-78)	GI50 (LXFL 529)	GI50 (KM-20L2)	GI50 (RXF 631)	GI50 (M19-MEL)	GI50 (HOP-18)
N=C(N)N/N=C(/c1nc2ccc([N+](=O)[O-])cc2[nH]c1=O)C(O)c1ccc([N+](=O)[O-])cc1 (stereo unspecified)	87.3 µM (inactive)	40 µM (inactive)	8.28 µM (inactive)	> 100 µM (inactive)	30.8 µM (inactive)	18 µM (inactive)	> 100 µM (inactive)	> 100 µM (inactive)	–
O=C(Nc1ccc(Cl)c(C(F)(F)F)c1)C(=O)C(C(=O)/C=C/c1ccccc1)C1OC(=O)c2ccccc21 (stereo unspecified)	> 100 µM (inactive)	> 100 µM (inactive)	66.5 µM (inactive)	64 µM (inactive)	57.4 µM (inactive)	> 100 µM (inactive)	–	84.9 µM (inactive)	> 100 µM (inactive)
O=[N+]([O-])c1ccc(Cc2nc3ccccc3s2)cc1	41.6 µM (inactive)	> 100 µM (inactive)	39.5 µM (inactive)	> 100 µM (inactive)	61 µM (inactive)	> 100 µM (inactive)	–	71.3 µM (inactive)	> 100 µM (inactive)
CSC(C1c2ccccc2N(C)c2[nH]c(=O)n(C)c(=O)c21)S(=O)(=O)c1ccc(C)cc1 (stereo unspecified)	> 100 µM (inactive)	> 100 µM (inactive)	> 100 µM (inactive)	> 100 µM (inactive)	56.4 µM (inactive)	–	–	40.3 µM (inactive)	> 100 µM (inactive)
Cn1cc2c(n1)c(N/N=C/c1ccccc1)nn1nnnc21	> 100 µM (inactive)	> 100 µM (inactive)	> 100 µM (inactive)	> 100 µM (inactive)	> 100 µM (inactive)	> 100 µM (inactive)	> 100 µM (inactive)	> 100 µM (inactive)	> 100 µM (inactive)
O=C1C2Nc3ccccc3SC2C(=O)N1c1ccccc1C(F)(F)F (stereo unspecified)	27.3 µM (inactive)	19.6 µM (inactive)	40.7 µM (inactive)	15.2 µM (inactive)	33.7 µM (inactive)	–	–	46.9 µM (inactive)	26.4 µM (inactive)
O=C1[C@@H]2C(c3ccccc3[N+](=O)[O-])=[N+](c3ccccc3)O[C@@H]2C(=O)N1c1ccc(Cc2ccc(N3C(=O)[C@H]4C(c5ccccc5[N+](=O)[O-])=[N+](c5ccccc5)O[C@H]4C3=O)cc2)cc1	> 100 µM (inactive)	–	> 100 µM (inactive)	> 100 µM (inactive)	94.6 µM (inactive)	> 100 µM (inactive)	–	> 100 µM (inactive)	85.9 µM (inactive)
c1ccc(N2CCN(CCN3CCc4c([nH]c5ccccc45)C3c3cccnc3)CC2)cc1 (stereo unspecified)	> 100 µM (inactive)	89.9 µM (inactive)	> 100 µM (inactive)	56.8 µM (inactive)	> 100 µM (inactive)	> 100 µM (inactive)	39.5 µM (inactive)	> 100 µM (inactive)	> 100 µM (inactive)
O=c1c2ccccc2nc(-c2ccccc2)n1NC(=S)Nc1cccc(Cl)c1	> 100 µM (inactive)	–	67.3 µM (inactive)	–	> 100 µM (inactive)	–	–	> 100 µM (inactive)	> 100 µM (inactive)
FC(F)(F)c1nc(-c2ccccc2)oc1Sc1oc(-c2ccccc2)nc1C(F)(F)F	> 100 µM (inactive)	34.8 µM (inactive)	40.3 µM (inactive)	> 100 µM (inactive)	> 100 µM (inactive)	> 100 µM (inactive)	–	> 100 µM (inactive)	73.6 µM (inactive)
COC(=O)NN=C1C(C)(C)C(=O)C1(C)C	> 100 µM (inactive)	> 100 µM (inactive)	–	> 100 µM (inactive)	> 100 µM (inactive)	> 100 µM (inactive)	> 100 µM (inactive)	–	–
COc1cccc(NC(=O)CC(=O)N2NC(c3ccccc3)C(/N=N/c3cccc(C(=O)O)c3)C2=O)c1 (stereo unspecified)	> 100 µM (inactive)	> 100 µM (inactive)	> 100 µM (inactive)	> 100 µM (inactive)	85.1 µM (inactive)	> 100 µM (inactive)	–	> 100 µM (inactive)	< 0.01 µM (active)
CC1(C)OC(=O)C(C#N)=C1/C=C/c1coc2ccc(Cl)cc2c1=O	23.1 µM (inactive)	–	34.8 µM (inactive)	33.8 µM (inactive)	27.9 µM (inactive)	42.2 µM (inactive)	38.8 µM (inactive)	41.2 µM (inactive)	–
CP(=O)(CCSc1ccccc1)c1ccccc1 (stereo unspecified)	> 100 µM (inactive)	> 100 µM (inactive)	> 100 µM (inactive)	> 100 µM (inactive)	> 100 µM (inactive)	> 100 µM (inactive)	–	> 100 µM (inactive)	> 100 µM (inactive)
O=[N+]([O-])c1ccc(-c2ccc(-c3csc(Nc4ccccc4)n3)o2)cc1	23.3 µM (inactive)	18.4 µM (inactive)	25.7 µM (inactive)	8.17 µM (inactive)	18.6 µM (inactive)	21 µM (inactive)	–	29.9 µM (inactive)	15.8 µM (inactive)
CCOC(=O)/C(=C\c1cccs1)P(=O)(OCC)OCC	21.2 µM (inactive)	–	21.5 µM (inactive)	49.3 µM (inactive)	18.6 µM (inactive)	21.9 µM (inactive)	55.8 µM (inactive)	21.5 µM (inactive)	31.3 µM (inactive)
COc1cc([C@@H]2c3cc4c(cc3[C@@H](NC(=O)c3ccc(C#N)cc3)C3COC(=O)[C@@H]32)OCO4)cc(OC)c1O (stereo partly specified)	1.64 µM (inactive)	–	0.315 µM (active)	6.03 µM (inactive)	4.61 µM (inactive)	0.785 µM (active)	–	1.26 µM (inactive)	55.1 µM (inactive)
O/N=N/c1cnccn1	> 1250 µM (inactive)	–	929 µM (inactive)	> 918 µM (inactive)	–	> 1250 µM (inactive)	–	> 1250 µM (inactive)	> 1250 µM (inactive)
CCN(CC)CCC(=O)O[C@H]1CC[C@H](CC(C)[C@H]2CC(=O)C(C)C=C(C)[C@H](OC(=O)CCN(CC)CC)C(OC)C(=O)[C@@H](C)CC(C)/C=C/C=C/C=C(C)C(OC)CC3CC[C@H](C)[C@](O)(O3)C(=O)C(=O)N3CCCCC3C(=O)O2)CC1OC (stereo partly specified)	–	–	–	< 0.01 µM (active)	< 0.01 µM (active)	1.6 µM (inactive)	0.406 µM (active)	–	–
CC(=O)OC1[C@H]2c3cc4c(cc3CN3CCC(C[C@@H]1OC(C)=O)C23)OCO4 (stereo partly specified)	> 75 µM (inactive)	–	> 75 µM (inactive)	> 75 µM (inactive)	> 75 µM (inactive)	> 75 µM (inactive)	–	> 75 µM (inactive)	–
Fc1cccc(F)c1C1SCc2nc3ccccc3n21 (stereo unspecified) [THIAZOLOBENZIMIDAZOLE]	> 100 µM (inactive)	52 µM (inactive)	–	63.5 µM (inactive)	60.4 µM (inactive)	> 100 µM (inactive)	–	44.9 µM (inactive)	53.6 µM (inactive)
